Experimental data reported in ChEMBL document CHEMBL1149281, “Structure-activity relationship of 6-methylidene penems bearing tricyclic heterocycles as broad-spectrum beta-lactamase inhibitors: crystallographic structures show unexpected binding of 1,4-thiazepine intermediates” (J Med Chem, 2004).

Key:
Beta-lactamase = Beta-lactamase (Enterobacter cloacae, UniProt P05364)
Description: Inhibition of Enterobacter cloacae AmpC

Escherichia coli [1] = assay: Antimicrobial activity against Escherichia coli GC 2805 expressing CcrA in presence of 4 ug/mL piperacillin; type: functional
Escherichia coli [2] = assay: Antimicrobial activity against Escherichia coli GC 2252 expressing IRT2 in presence of 4 ug/mL piperacillin; type: functional
Escherichia coli [3] = assay: Antimicrobial activity against Escherichia coli GC 2847 expressing TEM1 in presence of 4 ug/mL piperacillin; type: functional
[4] = Inhibition of Enterobacter cloacae class C beta lactamase GC1
Beta-lactamase SHV-1 = molecular target: T1, Beta-lactamase SHV-1 (Escherichia coli, UniProt P0AD63); assay: Inhibition of Escherichia coli SHV1
T1 sequence (P0AD63 whole entry): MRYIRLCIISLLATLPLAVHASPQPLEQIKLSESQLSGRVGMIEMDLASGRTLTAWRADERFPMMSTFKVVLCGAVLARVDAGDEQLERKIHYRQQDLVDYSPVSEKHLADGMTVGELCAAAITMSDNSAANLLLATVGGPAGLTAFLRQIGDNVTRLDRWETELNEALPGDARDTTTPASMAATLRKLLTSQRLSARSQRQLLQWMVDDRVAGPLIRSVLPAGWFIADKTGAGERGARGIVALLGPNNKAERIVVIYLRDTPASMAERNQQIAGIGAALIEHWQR

Serratia marcescens [5] = assay: Antimicrobial activity against Serratia marcescens GC 1781 expressing Sme1 and AmpC in presence of 4 ug/mL piperacillin; type: functional
Pseudomonas aeruginosa = assay: Antimicrobial activity against Pseudomonas aeruginosa GC 1764 expressing AmpC in presence of 4 ug/mL piperacillin; type: functional
Escherichia coli [6] = assay: Antimicrobial activity against Escherichia coli GC 2920 expressing IRT2 in presence of 4 ug/mL piperacillin; type: functional
Enterobacter cloacae [7] = assay: Antimicrobial activity against Enterobacter cloacae GC 1475 expressing P99 in presence of 4 ug/mL piperacillin; type: functional
Serratia marcescens [8] = assay: Antimicrobial activity against Serratia marcescens GC 4142 expressing AmpC in presence of 4 ug/mL piperacillin; type: functional
Staphylococcus aureus = assay: Antimicrobial activity against Staphylococcus aureus GC 2216 in presence of 4 ug/mL piperacillin; type: functional
Enterobacter cloacae [9] = assay: Antimicrobial activity against Enterobacter cloacae GC 2071 expressing Imi1 and AmpC in presence of 4 ug/mL piperacillin; type: functional
Escherichia coli [10] = assay: Antimicrobial activity against Escherichia coli GC 2203 in presence of 4 ug/mL piperacillin; type: functional
Klebsiella pneumoniae = assay: Antimicrobial activity against Klebsiella pneumoniae GC 2825 in presence of 4 ug/mL piperacillin; type: functional
Enterobacter cloacae [11] = assay: Antimicrobial activity against Enterobacter cloacae GC 1477 expressing AmpC in presence of 4 ug/mL piperacillin; type: functional
Escherichia coli [12] = assay: Antimicrobial activity against Escherichia coli GC 2804 expressing Imp in presence of 4 ug/mL piperacillin; type: functional
Escherichia coli [13] = assay: Antimicrobial activity against Escherichia coli GC 2844 in presence of 4 ug/mL piperacillin; type: functional
Beta-lactamase TEM = Beta-lactamase TEM (Escherichia coli, UniProt P62593); assay: Inhibition of Escherichia coli TEM1
[14] = molecular target: Metallo-beta-lactamase type 2 (Bacteroides fragilis, UniProt P25910); assay: Inhibition of Bacteroides fragilis CcrA
Sequence of Metallo-beta-lactamase type 2 (P25910 whole entry): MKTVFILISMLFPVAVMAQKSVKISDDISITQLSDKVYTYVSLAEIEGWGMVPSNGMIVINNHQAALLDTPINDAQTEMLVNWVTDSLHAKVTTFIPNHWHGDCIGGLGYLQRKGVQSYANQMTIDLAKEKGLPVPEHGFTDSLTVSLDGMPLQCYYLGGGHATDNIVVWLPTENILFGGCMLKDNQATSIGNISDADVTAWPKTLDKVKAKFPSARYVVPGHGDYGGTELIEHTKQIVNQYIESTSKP

Sequence of Beta-lactamase TEM (P62593 whole entry): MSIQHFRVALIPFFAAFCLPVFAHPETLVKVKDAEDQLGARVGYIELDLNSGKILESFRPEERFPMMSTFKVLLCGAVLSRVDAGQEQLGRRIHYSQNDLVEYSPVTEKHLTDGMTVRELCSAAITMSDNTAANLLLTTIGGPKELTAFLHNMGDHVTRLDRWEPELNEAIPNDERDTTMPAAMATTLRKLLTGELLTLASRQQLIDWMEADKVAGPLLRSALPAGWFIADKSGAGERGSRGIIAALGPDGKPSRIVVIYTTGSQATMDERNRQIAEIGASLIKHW
Sequence of Beta-lactamase (P05364 whole entry): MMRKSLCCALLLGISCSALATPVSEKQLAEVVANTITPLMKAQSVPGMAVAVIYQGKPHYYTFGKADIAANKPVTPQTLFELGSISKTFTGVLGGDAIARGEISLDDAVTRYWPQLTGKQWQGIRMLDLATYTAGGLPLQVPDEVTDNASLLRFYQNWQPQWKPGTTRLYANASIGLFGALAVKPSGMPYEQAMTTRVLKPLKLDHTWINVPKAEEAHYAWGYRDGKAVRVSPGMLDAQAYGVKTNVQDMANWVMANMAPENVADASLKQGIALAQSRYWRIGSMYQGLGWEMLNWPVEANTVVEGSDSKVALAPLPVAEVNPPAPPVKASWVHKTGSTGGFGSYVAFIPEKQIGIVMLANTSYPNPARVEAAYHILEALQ

| Compound | IC50 (Beta-lactamase) [nM] | MIC (Escherichia coli [1]) [µg/mL] | MIC (Escherichia coli [2]) [µg/mL] | MIC (Escherichia coli [3]) [µg/mL] | IC50 [4] [nM] | IC50 (Beta-lactamase SHV-1) [nM] | MIC (Serratia marcescens [5]) [µg/mL] | MIC (Pseudomonas aeruginosa) [µg/mL] | MIC (Escherichia coli [6]) [µg/mL] | MIC (Enterobacter cloacae [7]) [µg/mL] | MIC (Serratia marcescens [8]) [µg/mL] | MIC (Staphylococcus aureus) [µg/mL] | MIC (Enterobacter cloacae [9]) [µg/mL] | MIC (Escherichia coli [10]) [µg/mL] | MIC (Klebsiella pneumoniae) [µg/mL] | MIC (Enterobacter cloacae [11]) [µg/mL] | MIC (Escherichia coli [12]) [µg/mL] | MIC (Escherichia coli [13]) [µg/mL] | IC50 (Beta-lactamase TEM) [nM] | IC50 [14] [nM] |
| --- | --- | --- | --- | --- | --- | --- | --- | --- | --- | --- | --- | --- | --- | --- | --- | --- | --- | --- | --- | --- |
| O=C([O-])C1=CS[C@@H]2/C(=C\c3cn4c5c(sc4n3)CCC5)C(=O)N12.[Na+] | 2 | > 64 | 8 | 4 | 3.8 | 12 | 1 | 2 | 2 | 16 | 2 | 2 | 4 | 2 | 4 | 16 | < 0.06 | 2 | – | – |
| Cc1ccc2c(c1)sc1nc(/C=C3/C(=O)N4C(C(=O)[O-])=CS[C@H]34)cn12.[Na+] | 1 | > 64 | 16 | 4 | – | – | 0.5 | 16 | 2 | 8 | 1 | < 0.06 | 8 | 1 | 8 | 32 | < 0.06 | 2 | 3 | 103 |
| O=C([O-])C1=CS[C@@H]2/C(=C\c3cn4c(n3)sc3ccccc34)C(=O)N12.[Na+] | 1 | > 64 | 8 | 2 | – | – | 0.5 | 4 | 2 | 8 | 1 | < 0.06 | 2 | 2 | 16 | 16 | < 0.06 | 2 | – | – |
| Cc1cccc2sc3nc(/C=C4/C(=O)N5C(C(=O)[O-])=CS[C@H]45)cn3c12.[Na+] | 2 | > 64 | 16 | 8 | – | – | 4 | 2 | 2 | 16 | 4 | < 0.06 | 16 | 2 | 16 | 32 | < 0.06 | 2 | 9 | 370 |
| O=C([O-])C1=CS[C@@H]2/C(=C\c3cn4c(n3)sc3cc(F)ccc34)C(=O)N12.[Na+] | 2 | > 64 | 16 | 8 | – | – | 2 | 4 | 2 | 16 | 2 | < 0.06 | 8 | 2 | 16 | 32 | < 0.06 | 2 | 8 | – |
| COc1ccc2c(c1)sc1nc(/C=C3/C(=O)N4C(C(=O)[O-])=CS[C@H]34)cn12.[Na+] | 2 | > 64 | 8 | 16 | – | – | 2 | 32 | 2 | 16 | 2 | < 0.06 | 16 | 1 | 64 | 64 | < 0.06 | 2 | – | – |
| O=C([O-])C1=CS[C@@H]2/C(=C\c3cn4c(n3)sc3cc(Cl)ccc34)C(=O)N12.[Na+] | 3 | > 64 | 16 | 4 | – | – | 1 | 16 | 1 | 8 | 2 | < 0.06 | 8 | 1 | 32 | 16 | < 0.06 | 2 | 6 | 74 |
| C[C@]1(Cn2ccnn2)[C@H](C(=O)[O-])N2C(=O)C[C@H]2S1(=O)=O.[Na+] [TAZOBACTAM SODIUM] | – | > 64 | 2 | 2 | – | – | 1 | > 64 | 4 | > 64 | > 64 | 64 | > 64 | > 64 | > 64 | > 64 | 0.12 | 2 | – | – |
